Results: article PMC4949444 (Scientific Reports, 2016)

How the values were obtained:
N2a cells = experiment: Glutamate-induced excitotoxicity in N2a cells (MTT); format: cell-based; conditions: 15 mM glutamate 24 h
Protocol: Figure 1 VCE-003.2 synthesis and characterization. (a) Schematic representation of VCE-003.2 synthesis. […] The indicated concentrations were tested and results were plotted to obtain the polynomial trend on a logarithmic range. IC50 values are indicated within the graph. […]. HEK293 cells were co-transfected with GAL4-PPARγ and GAL4-luc and incubated with the indicated compound concentrations for 6 hours prior to luciferase activity determination. Results are expressed as the fold induction ± S.D. relative to untreated control. (d) N2a cells were incubated with VCE-003 and VCE-003.2 as indicated during 24 hours and cell viability was determined by the MTT assay. Results are expressed as percentage of cell viability against the negative control (100%). (e) N2a cells were pre-treated with the compounds for 30 min and incubated during 24 h with 15 mM glutamate and cell viability determined by MTT. Results are expressed as percentage of cell viability against the negative control (100%). All experiments are shown as mean ± S.D. from at least three independent experiments. Statistics: *^,#,†p < 0.05, **^,##,††p < 0.01 and ***^,###p < 0.001. […] | Briefly, N2a cells were seeded at a density of 1 × 10^3 cells/well in 96-well plates, treated with increasing concentrations of VCE-003 or VCE-003.2 for 24 hours and cell viability was measured by the MTT method. […]. […]

PPARγ = format: cell-based; conditions: HEK293, GAL4-PPARγ + GAL4-luc, 6 hours
Protocol: The indicated concentrations were tested and results were plotted to obtain the polynomial trend on a logarithmic range. IC50 values are indicated within the graph. […] HEK293 cells were co-transfected with GAL4-PPARγ and GAL4-luc and incubated with the indicated compound concentrations for 6 hours prior to luciferase activity determination. Results are expressed as the fold induction ± S.D. relative to untreated control. […] All experiments are shown as mean ± S.D. from at least three independent experiments. Statistics: *^,#,†p < 0.05, **^,##,††p < 0.01 and ***^,###p < 0.001. […] To study PPARγ transcriptional activity HEK293 cells were seeded in 24-well plates and transiently co-transfected with the expression vector GAL4-PPARγ and the luciferase reporter vector GAL4-luc using Roti-Fect (Carl Roth, Karlsruhe, Germany) following the manufacturer’s instructions. To correct for transfection efficacy, 100 ng Renilla luciferase (pRL-CMV) was also cotransfected. After stimulation, the luciferase activities were quantified using Dual-Luciferase Assay (Promega, Madison, WI, USA).

[1] = system: QA-induced excitotoxicity in CD1 mice; experiment: Intrastriatal QA-induced model of Huntington's disease; format: in vivo
Protocol: Figure 5 Protective action of VCE-003.2 administration in QA-induced excitotoxicity in vivo. (a) CD1 mice were subjected to quinolinic acid (QA) intrastriatal injection and RotaRod performance (fold change) was determined 2 days after lesion in vehicle- and VCE-003.2-treated mice (10 mg/kg). (b) Representative MRI images (Upper panel) and edema volume quantification (lower panel) 5 days after QA injection. Values are expressed as means ± SEM. Sham-Veh and Sham-VCE (n = 7 in each group); QA-Veh (n = 8); QA-VCE (n = 7). **p < 0.01, ***p < 0.001 vs. Vehicle. ^#p < 0.05 vs. QA.
Figure 6 Neuroprotection and attenuation of glial reactivity by VCE-003.2 in QA-induced excitotoxicity in vivo. (a) Representative immunofluorescence images of DARPP32, GFAP, Iba-1 are shown in sham and QA-injected mice treated with vehicle or VCE-003.2 (10 mg/kg). (b) Immunoreactivity of the different markers was quantified with Image J software and referred to the striatal surface analyzed. Values are expressed as means ± SEM. Sham-Veh and Sham-VCE (n = 3); QA-Veh (n = 8); QA-VCE (n = 6). **p < 0.01, ***p < 0.001 vs. QA. Bar size, 200 μm.
Mice were housed under standard conditions (12-h light/dark cycle) in groups with access to food and water ad libitum. All experiments were performed in accordance with European Union guideline and approved by the Animal Research Ethic Committee of Córdoba University (2014PI/017) (3NP model) and by the Animal Research Ethic Committee of Complutense University (CEA-UCM 73/2012) (QA model). Procedures were designed to minimize the number of animals used and their suffering. Excitotoxicity was induced by intrastriatal quinolinic acid (QA) administration (100 nmol in 1 μL PBS solution, unilaterally) as previously described[41] at the following coordinates: +0.6 posterior to bregma, +1.85 medio-lateral and -2.7 dorso-ventral to dura, in 12-week-old CD1 male mice (Harlan Ibérica, Barcelona, Spain). Pharmacological manipulation with VCE-003.2 (10 mg/kg body weight) was performed i.p. daily in 2% Tween 20 and 3% DMSO in saline buffer until sacrifice. Control animals received the corresponding vehicle injections. Motor function was assessed by RotaRod analysis conducted with acceleration from 4 to 40 rpm over a period of 570 s in an LE8200 device (Harvard Apparatus, Barcelona, Spain). […] 3NP-treated animals and their respective non-lesioned controls (injected with PBS) were used for pharmacological studies with VCE-003.2. Treatments consisted of 4 i.p. injections every 24 h with 20 mg/kg VCE-003.2 or vehicle (4% DMSO plus 6,2% Tween 20 in saline buffer), with the first and the last injections 30 min before the first and the last injections of 3NP, respectively. In some experiments, mice received a combination of VCE-003.2 and the PPARγ antagonist T0070907 (5 mg/kg) injected 15 minutes before VCE-003.2. In 3NP-lesioned mice, motor activity, hindlimb clasping, dystonia, and truncal dystonia were evaluated following previously described procedures. All behavioural tests were conducted prior to drug injections to avoid acute effects of the compounds under investigation and all animals were euthanized 12 h after the last injection of 3NP and their brains removed. The right hemispheres were used to dissect the striatum which was frozen in RNAlater (Sigma-Aldrich) and stored at −80 °C for biochemical analyses. […]

Structure (SMILES): CCCCCC1=C(NCC)C(=O)C(C/C=C(\C)CCC=C(C)C)=C(O)C1=O [VCE-003.2]
- prevention of glutamate-induced excitotoxicity (N2a cells): able to prevent excitotoxicity induced by glutamate
- PPARγ transcriptional activity (transactivation) (PPARγ): induced PPARγ transactivation in a concentration-dependent manner
- RotaRod performance ([1]; 2 days after QA injury, 10 mg/kg i.p. daily): reversed
- edema volume (MRI) ([1]; 5 days after QA injury, 10 mg/kg): edema volume was not affected
- QA-induced DARPP32 neuronal loss ([1]; striatum, 10 mg/kg): prevented QA-induced DARRP32 neuronal loss
- microglial activation (Iba-1) ([1]; striatum, 10 mg/kg): prevented QA-induced DARRP32 neuronal loss and microglial activation
- reactive astrogliosis (GFAP) ([1]; striatum, 10 mg/kg): tendency to attenuate reactive astrogliosis
